Laboratory results taken from patent US20150045410A1, “METHOD OF REGULATING CFTR EXPRESSION AND PROCESSING” (University of Iowa Research Foundation, priority 2012, published 2015).

Test system: CFTR-ΔF508
Test: CFTR-ΔF508 mRNA and protein in primary cultures of CF airway epithelia
Type: cell-based, human
Description: Airway epithelia from human trachea and primary bronchus removed from organs donated for research were cultured at the air-liquid interface (ALI) (Karp, P. H. et al. An in vitro model of differentiated human airway epithelia. Methods for establishing primary cultures. Methods Mol. Biol. 188, 115-137 (2002)). These studies were approved by the Institutional Review Board of the University of Iowa. Briefly, airway epithelial cells were dissociated from native tissue by pronase enzyme digestion. Permeable membrane inserts (0.6 cm^2 Millipore-PCF, 0.33 cm^2 Costar-Polyester) pre-coated with human placental collagen (IV, Sigma) were seeded with freshly dissociated epithelia. […]
First-strand cDNA was synthesized using SuperScript® II (Invitrogen), and oligo-dT and random-hexamer primers. […] To quantitate miRNAs, TaqMan® microRNA Assays (Applied Biosystems) were obtained for miR-138, RNU48 (control) and 8 other miRNAs (negative control, miRs-21, -24, -26a, -200c, -146a, -146b, -27a*, -134). […] All experiments were performed in quadruplicate. mRNA and miRNA quantification in cell lines represents 8 independent transfections in 4 separate experiments. mRNA quantification in human primary airway epithelial cultures represent 8 independent transfections in 8 non-CF donors and 4 CF donors. […]

Row | Substance | CFTR-ΔF508 mRNA and protein
1 | SIN3A DsiRNA: Dicer-substrate siRNA against SIN3A, sense SEQ ID NO: 6, antisense SEQ ID NO: 7 (sense GCGAUACAUGAAUUCAGAUACUACC; antisense GGUAGUAUCUGAAUUCAUGUAUCGCUC; chemistry not given here) | increased
2 | miR-138 mimic: synthetic modified RNA duplex, sense SEQ ID NO: 4, antisense SEQ ID NO: 5, showing miR-138-like activity | increased
